Earlier results in US11369672B2 (priority 2012, dated 2022).
Converted amounts (≈) assume the structure as drawn.

Test system: Mtb H37Rv

For `CO[C@H]1/C=C/O[C@@]2(C)Oc3c(C)c(O)c4c(O)c(c(/C=N/N5CCN(C)CC5)c(O)c4c3C2=O)NC(=O)/C(C)=C\C=C\[C@H](C)[C@H](O)[C@@H](C)[C@@H](O)[C@@H](C)[C@H](OC(C)=O)[C@@H]1C` [RIF, rifampin], the minimum inhibitory concentration is listed as 0.25 µM (≈ 0.206 µg/mL).
